Measured values as given in US6939565B2, “Protease inhibitors of the coagulation cascade isolated from Dysidea sponges” (Pharmacia Corporation, priority 2001, dated 2005).

Tests used:
Type in all cases: biochemical
[1] = target: Xa (Homo sapiens, UniProt P00742); experiment: HPLC-PDA-MS-bioassay, factor Xa inhibition
Experimental: (§1) An aliquot of sample was injected onto C18 reversed-phase column with flow rate of 1 mL/min. Mass spectra were recorded from 150 to 1000 amu in both positive and negative modes using electrospray ionization. A splitter was attached immediately after the HPLC column so that a fraction of the eluent was directed towards the electrospray source. The remaining fraction was collected in deep-well plates. The plates were dried overnight and biassayed.

[2] = test system: Trypsin; experiment: HPLC-PDA-MS-bioassay, trypsin inhibition
Experimental: as §1

[3] = target: T1, Thrombin (Homo sapiens, UniProt P00734); experiment: HPLC-PDA-MS-bioassay, thrombin inhibition
T1 construct: Xa with factor Va converts prothrombin (II) to thrombin (IIa)
Experimental: as §1

[4] = target: T2, TF/VIIa (Homo sapiens, UniProt P08709); experiment: Factor VIIa/TF inhibitory assay (chromogenic substrate, OD 405 nm); settings: recombinant human factor VIIa with recombinant soluble tissue factor
T2 construct: recombinant human factor VIIa
T2 sequence (P08709 61-212 limits assumed): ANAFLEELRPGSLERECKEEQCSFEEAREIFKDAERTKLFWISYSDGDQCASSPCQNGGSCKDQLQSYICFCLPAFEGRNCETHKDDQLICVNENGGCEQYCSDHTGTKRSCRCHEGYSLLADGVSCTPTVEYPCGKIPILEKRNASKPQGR
T2 sequence (P08709 213-466 limits assumed): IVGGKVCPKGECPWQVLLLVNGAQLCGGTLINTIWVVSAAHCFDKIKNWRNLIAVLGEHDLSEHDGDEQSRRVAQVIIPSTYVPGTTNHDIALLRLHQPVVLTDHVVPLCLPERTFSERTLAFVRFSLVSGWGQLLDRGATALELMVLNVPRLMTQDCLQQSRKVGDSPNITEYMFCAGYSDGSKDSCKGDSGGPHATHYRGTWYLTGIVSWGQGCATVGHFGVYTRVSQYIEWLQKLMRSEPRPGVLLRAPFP
T2 sequence (P13726 33-251 partner limits assumed): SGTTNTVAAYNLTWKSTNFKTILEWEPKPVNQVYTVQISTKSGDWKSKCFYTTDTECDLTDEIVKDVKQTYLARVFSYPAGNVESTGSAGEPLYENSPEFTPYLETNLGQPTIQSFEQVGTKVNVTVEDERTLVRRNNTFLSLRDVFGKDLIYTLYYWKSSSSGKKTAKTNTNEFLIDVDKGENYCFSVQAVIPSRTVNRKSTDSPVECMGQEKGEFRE
Experimental: To determine inhibitory activity, the compound having structure (1) was combined with recombinant human factor VIIa in black clear bottom well plates followed by a 10 minute room temperature incubation. Recombinant soluble tissue factor was then added followed by a 15 minute room temperature incubation. Finally, chromozymen tPA substrate was added and the plates were immediately read at 405 nm to determine background absorbance. After incubation, the rate of hydrolysis of the substrate was measured by monitoring the reaction at 405 nm for the release of p-nitroaniline. Percent inhibition of TF/VIIa activity was calculated from OD 405 nm value from the experimental and control sample. All hits 50% of control and less were confirmed and requested for IC50 values.
as §1

Xa, sequence (P00742 41-179 limits assumed): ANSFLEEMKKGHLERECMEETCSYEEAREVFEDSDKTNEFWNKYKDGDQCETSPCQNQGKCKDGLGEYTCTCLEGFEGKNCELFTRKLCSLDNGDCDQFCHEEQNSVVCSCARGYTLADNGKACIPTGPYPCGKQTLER
Xa, sequence (P00742 235-488 limits assumed): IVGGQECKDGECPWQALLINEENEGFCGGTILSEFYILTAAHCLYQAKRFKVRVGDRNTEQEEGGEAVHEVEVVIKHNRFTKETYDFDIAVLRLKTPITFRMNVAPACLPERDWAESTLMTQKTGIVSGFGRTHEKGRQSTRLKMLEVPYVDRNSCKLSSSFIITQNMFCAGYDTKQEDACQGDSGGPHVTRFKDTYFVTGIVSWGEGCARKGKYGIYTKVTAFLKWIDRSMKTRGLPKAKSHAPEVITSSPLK

COC(COS(=O)(=O)O)C(=O)NC(C(=O)N1C(C(=O)NCCC2=CCN(C(=N)N)C2)CC2CC(O)C(O)CC21)C(Cl)C(C)C (stereo not shown) [Structure 1]
IC50 [1]: 0.2 µM | IC50 [2]: 0.037 µM | IC50 [3]: 0.004 µM | IC50 [4]: 0.009 µM
